{
  "source": "paper PMC4501059",
  "about": "“Responding to the challenge of untreatable gonorrhea: ETX0914, a first-in-class agent with a distinct mechanism-of-action against bacterial Type II topoisomerases” (Scientific Reports, 2015)",
  "key": {"[1]": {"conditions": "rat, in vivo"}, "in vivo": {"experiment": "in vivo", "conditions": "rat, po"}, "[2]": {"experiment": "Quantitative whole-body autoradiography, tissue distribution of radioactivity", "type": "in vivo, male pigmented Lister Hood rat", "procedure": "Quantitative whole-body autoradiography. The distribution of radioactivity in male, pigmented Lister Hood rat tissues was obtained after a single intravenous infusion over 15 minutes of ^14C-AZD0914 at 25 mg/kg (51 μmol/kg, 5 MBq/kg) using quantitative whole-body autoradiography with phosphor-imaging technology. The potential of this compound and/or its metabolites to bind to melanin-containing tissues and/or to potentially bind covalently to tissues was also evaluated. The rats were sacrificed at 5 minutes, 1 hour, 4 hours, 24 hours, 48 hours, 7 days and 21 days after the end of infusion with enflurane (Efrane®, Abbott Laboratories, USA), and frozen in acetone, cooled to -70 °C with solid CO2. The 7- and 21- day animals could not be quantified as no trace of radioactivity was observed. After removal of limbs and tail, the carcass was embedded, with left lateral side uppermost, in a 2.5% (w/v) aqueous solution of caramellosum natricum and frozen for at least 10 minutes. The animal blocks were stored at -20 °C until sectioning. Sagittal whole-body sections (30 μm) were obtained to include organs and tissues of interest. At sectioning each block was mounted in a Leica CM3600 Cryomacrotome (Leica Microsystems GmbH, Germany) maintained at approximately -20 °C. All sections were dried at -20 °C for at least 1 day prior to exposure on phosphor-imaging plates. Together with two sets of calibration standards, the sections were placed on phosphor-imaging plates, which had been pre-covered with a thin plastic film. The imaging plates were exposed for 1 to 3 days at +4 to +12 °C, enclosed in light tight cassettes in a lead shielding box to protect from environmental radiation. Following exposure, the imaging plates were scanned at a pixel size of 50 μm using FLA-7000 (FujiFilm Sverige AB, Sweden). The tissues and organs of interest were quantified using AIDA 3.5 (Raytest, Germany). The quantification limit was defined as twice the background value of the imaging plate and varied between the plates from 0.23 to 0.33 nmol/g. The various tissues and organs were identified either on the autoradiograms or on the corresponding tissue sections."}, "[3]": {"experiment": "plasma protein binding, mouse", "conditions": "in vitro at 1-50 µM"}, "[4]": {"experiment": "Human plasma protein binding (PPB)", "conditions": "independent of concentration 1–50 μM"}, "[5]": {"conditions": "5 minutes after 25 mg/kg iv infusion"}, "[6]": {"conditions": "1 hour after 25 mg/kg iv infusion"}, "[7]": {"conditions": "4 hours after 25 mg/kg iv infusion"}},
  "data": [
    {"smiles": "CC(=O)NC[C@H]1CN(c2ccc(N3CCOCC3)c(F)c2)C(=O)O1", "note": "[Linezolid]", "values": [
      {"measurement": "neutrophil count", "setting": "[1]", "result": "showing suppression"},
      {"measurement": "reticulocytes count", "setting": "[1]; 250 mg/kg", "result": "significant suppression"},
      {"measurement": "AUC", "setting": "in vivo", "result": 1900, "unit": "µM·h"}
    ]},
    {"smiles": "C[C@@H]1CN2c3c(cc4c(N5C(=O)OC[C@@H]5C)noc4c3F)C[14C]3(C(=O)NC(=O)NC3=O)[C@H]2[C@H](C)O1", "note": "[^14C-ETX0914]", "values": [
      {"measurement": "Total radioactivity: Adrenal cortex", "setting": "[2]; [5]", "result": 84, "unit": "nmol/g"},
      {"measurement": "Total radioactivity: Adrenal medulla", "setting": "[2]; [5]", "result": 43, "unit": "nmol/g"},
      {"measurement": "Total radioactivity: Aortic wall", "setting": "[2]; [5]", "result": 53, "unit": "nmol/g"},
      {"measurement": "Total radioactivity: Bile", "setting": "[2]; [5]", "result": 1200, "unit": "nmol/g"},
      {"measurement": "Total radioactivity: Bone marrow", "setting": "[2]; [5]", "result": 35, "unit": "nmol/g"},
      {"measurement": "Total radioactivity: Brain", "setting": "[2]; [5]", "result": 0.79, "unit": "nmol/g"},
      {"measurement": "Total radioactivity: Choroid & retinal pigment epithelium", "setting": "[2]; [5]", "result": 16, "unit": "nmol/g"},
      {"measurement": "Total radioactivity: Heart blood", "setting": "[2]; [5]", "result": 27, "unit": "nmol/g"},
      {"measurement": "Total radioactivity: Liver", "setting": "[2]; [5]", "result": 320, "unit": "nmol/g"},
      {"measurement": "Total radioactivity: Lung", "setting": "[2]; [5]", "result": 52, "unit": "nmol/g"},
      {"measurement": "Total radioactivity: Lymph node", "setting": "[2]; [5]", "result": 29, "unit": "nmol/g"},
      {"measurement": "Total radioactivity: Myocardium", "setting": "[2]; [5]", "result": 73, "unit": "nmol/g"},
      {"measurement": "Total radioactivity: Renal cortex", "setting": "[2]; [5]", "result": 170, "unit": "nmol/g"},
      {"measurement": "Total radioactivity: Renal medulla (inner)", "setting": "[2]; [5]", "result": 70, "unit": "nmol/g"},
      {"measurement": "Total radioactivity: Renal medulla (outer)", "setting": "[2]; [5]", "result": 68, "unit": "nmol/g"},
      {"measurement": "Total radioactivity: Skeletal muscle", "setting": "[2]; [5]", "result": 29, "unit": "nmol/g"},
      {"measurement": "Total radioactivity: Skin, pigmented", "setting": "[2]; [5]", "result": 15, "unit": "nmol/g"},
      {"measurement": "Total radioactivity: Spinal cord", "setting": "[2]; [5]", "result": 1.0, "unit": "nmol/g"},
      {"measurement": "Total radioactivity: Testis", "setting": "[2]; [5]", "result": 2.4, "unit": "nmol/g"},
      {"measurement": "Total radioactivity: Urine", "setting": "[2]; [5]", "result": 51, "unit": "nmol/g"},
      {"measurement": "Total radioactivity: White fat", "setting": "[2]; [5]", "result": 6.6, "unit": "nmol/g"},
      {"measurement": "Total radioactivity: Adrenal cortex", "setting": "[2]; [6]", "result": 40, "unit": "nmol/g"},
      {"measurement": "Total radioactivity: Adrenal medulla", "setting": "[2]; [6]", "result": 26, "unit": "nmol/g"},
      {"measurement": "Total radioactivity: Aortic wall", "setting": "[2]; [6]", "result": 58, "unit": "nmol/g"},
      {"measurement": "Total radioactivity: Bile", "setting": "[2]; [6]", "result": 1500, "unit": "nmol/g"},
      {"measurement": "Total radioactivity: Bone marrow", "setting": "[2]; [6]", "result": 20, "unit": "nmol/g"},
      {"measurement": "Total radioactivity: Brain", "setting": "[2]; [6]", "result": 0.72, "unit": "nmol/g"},
      {"measurement": "Total radioactivity: Choroid & retinal pigment epithelium", "setting": "[2]; [6]", "result": 17, "unit": "nmol/g"},
      {"measurement": "Total radioactivity: Heart blood", "setting": "[2]; [6]", "result": 18, "unit": "nmol/g"},
      {"measurement": "Total radioactivity: Liver", "setting": "[2]; [6]", "result": 190, "unit": "nmol/g"},
      {"measurement": "Total radioactivity: Lung", "setting": "[2]; [6]", "result": 31, "unit": "nmol/g"},
      {"measurement": "Total radioactivity: Lymph node", "setting": "[2]; [6]", "result": 23, "unit": "nmol/g"},
      {"measurement": "Total radioactivity: Myocardium", "setting": "[2]; [6]", "result": 42, "unit": "nmol/g"},
      {"measurement": "Total radioactivity: Renal cortex", "setting": "[2]; [6]", "result": 130, "unit": "nmol/g"},
      {"measurement": "Total radioactivity: Renal medulla (inner)", "setting": "[2]; [6]", "result": 32, "unit": "nmol/g"},
      {"measurement": "Total radioactivity: Renal medulla (outer)", "setting": "[2]; [6]", "result": 120, "unit": "nmol/g"},
      {"measurement": "Total radioactivity: Skeletal muscle", "setting": "[2]; [6]", "result": 20, "unit": "nmol/g"},
      {"measurement": "Total radioactivity: Skin, pigmented", "setting": "[2]; [6]", "result": 20, "unit": "nmol/g"},
      {"measurement": "Total radioactivity: Spinal cord", "setting": "[2]; [6]", "result": 1.0, "unit": "nmol/g"},
      {"measurement": "Total radioactivity: Testis", "setting": "[2]; [6]", "result": 5.7, "unit": "nmol/g"},
      {"measurement": "Total radioactivity: Urine", "setting": "[2]; [6]", "result": 400, "unit": "nmol/g"},
      {"measurement": "Total radioactivity: White fat", "setting": "[2]; [6]", "result": 8.9, "unit": "nmol/g"},
      {"measurement": "Total radioactivity: Adrenal cortex", "setting": "[2]; [7]", "result": 8.7, "unit": "nmol/g"},
      {"measurement": "Total radioactivity: Adrenal medulla", "setting": "[2]; [7]", "result": 4.5, "unit": "nmol/g"},
      {"measurement": "Total radioactivity: Aortic wall", "setting": "[2]; [7]", "result": 13, "unit": "nmol/g"},
      {"measurement": "Total radioactivity: Bone marrow", "setting": "[2]; [7]", "result": 4.0, "unit": "nmol/g"},
      {"measurement": "Total radioactivity: Choroid & retinal pigment epithelium", "setting": "[2]; [7]", "result": 8.1, "unit": "nmol/g"},
      {"measurement": "Total radioactivity: Heart blood", "setting": "[2]; [7]", "result": 4.2, "unit": "nmol/g"},
      {"measurement": "Total radioactivity: Liver", "setting": "[2]; [7]", "result": 69, "unit": "nmol/g"},
      {"measurement": "Total radioactivity: Lung", "setting": "[2]; [7]", "result": 6.9, "unit": "nmol/g"},
      {"measurement": "Total radioactivity: Lymph node", "setting": "[2]; [7]", "result": 4.1, "unit": "nmol/g"},
      {"measurement": "Total radioactivity: Myocardium", "setting": "[2]; [7]", "result": 6.9, "unit": "nmol/g"},
      {"measurement": "Total radioactivity: Renal cortex", "setting": "[2]; [7]", "result": 39, "unit": "nmol/g"},
      {"measurement": "Total radioactivity: Renal medulla (inner)", "setting": "[2]; [7]", "result": 8.0, "unit": "nmol/g"},
      {"measurement": "Total radioactivity: Renal medulla (outer)", "setting": "[2]; [7]", "result": 18, "unit": "nmol/g"},
      {"measurement": "Total radioactivity: Skeletal muscle", "setting": "[2]; [7]", "result": 4.2, "unit": "nmol/g"},
      {"measurement": "Total radioactivity: Skin, pigmented", "setting": "[2]; [7]", "result": 3.6, "unit": "nmol/g"},
      {"measurement": "Total radioactivity: Spinal cord", "setting": "[2]; [7]", "result": 0.30, "unit": "nmol/g"},
      {"measurement": "Total radioactivity: Testis", "setting": "[2]; [7]", "result": 2.6, "unit": "nmol/g"},
      {"measurement": "Total radioactivity: Urine", "setting": "[2]; [7]", "result": 100, "unit": "nmol/g"},
      {"measurement": "Total radioactivity: Brain", "setting": "[2]; 4 hours after 25 mg/kg iv infusion, BLQ = below limit of quantification (0.24)", "result": "BLQ^d"},
      {"measurement": "Total radioactivity: Liver", "setting": "[2]; 24 hours after 25 mg/kg iv infusion", "result": 0.35, "unit": "nmol/g"},
      {"measurement": "Total radioactivity: Liver", "setting": "[2]; 48 hours after 25 mg/kg iv infusion, BLQ = below limit of quantification (0.24)", "result": "BLQ"},
      {"measurement": "melanin or covalent binding of parent and/or metabolites to tissue", "setting": "[2]; pigmented rat", "result": "no melanin or covalent binding"},
      {"measurement": "CNS penetration", "setting": "[2]; rat, whole-body autoradiography", "result": "very low CNS penetration"},
      {"measurement": "PPB (%free)", "setting": "[3]", "result": 22.1, "unit": "%free"},
      {"measurement": "PPB (%free)", "setting": "[4]", "result": 17.0, "unit": "% free"}
    ]}
  ]
}
